Earlier results as cited in patent US20260272898A1 (Bayer Aktiengesellschaft, priority 2024, published 2026).

Conditions: in vivo

Question: Which half-life does the source give for `CCOc1ncc(C)c2c1[C@H](c1ccc(C#N)cc1OC)C(C(N)=O)=C(C)N2` [finerenone, (4S)-4-(4-cyano-2-methoxyphenyl)-5-ethoxy-2,8-dimethyl-1,4-dihydro-1,6-naphthyridine-3-carboxamide] here?
Answer: Its half-life is “short”.
